Test results published in patent publication US20230173071A1, “TREATMENT OF MYOPIA AND OTHER OCULAR CONDITIONS USING SINGLET OXYGEN GENERATED FROM DYES ACTIVATED BY NEAR-INFRARED LIGHT” (California Institute of Technology, priority 2018, published 2023).

Columns and labels:
[1] = Singlet oxygen sensor green (SOSG) fluorescence measurements; format: physicochemical; conditions: for SOSG fluorescence emission at 525 nm: dye 0.1 mg/mL, 810 nm, 200 mW, 488 nm excitation
Description: Singlet oxygen sensor green (SOSG) is a common reagent for measuring singlet oxygen generation in aqueous systems. The marker becomes more fluorescent as singlet oxygen is generated. All time measurements were done in triplicate (100 μL aliquots from an irradiated sample). A Molecular Devices Flexstation was used to read out the fluorescence measurements with the excitation/emission at 488/525 nm.
SOSG fluorescence turn on was initially measured using riboflavin as a point of comparison for the efficacy of ICG irradiations. Measurements used a dye concentration of 0.1 mg/mL and the irradiation the parameters (3 mW at 365 nm) used in the FDA approved procedure for keratoconus (corneal expansion). The mixture was stirred during irradiation.
Stocks of the ICG formulations (both H2O and D2O) were made to be 1 mg/mL ICG and 0.01% benzalkonium chloride (BAC). These were diluted to a dye concentration of 0.1 mg/mL for the SOSG tests with no adjustments for the BAC. The sample was irradiated with 810 nm light at 200 mW and stirred throughout the irradiation.

[2] = Singlet oxygen generation by DPBF decay (UV-Vis), 810 nm LED; format: physicochemical
Excerpt: To evaluate the efficiency of singlet oxygen generation by ICG and an analog (IR-820) in vitro, the singlet oxygen generation was monitored. 1,3-diphenylisobenzofuran (DPBF), a compound that decays in the presence of singlet oxygen, and singlet oxygen sensor green (SOSG), a dye that increases fluorescence in the presence of singlet oxygen, were used as markers to indicate singlet oxygen generation by ICG and IR-820. […] For SOSG analysis, the fluorescence turn-on in H2O and D2O was compared to that observed when riboflavin—an FDA approved dye used in conjunction with UV light to treat keratoconus (corneal expansion)—was usedIn all cases, an increase in fluorescence emission at 525 nm was observed (using a 488nm excitation).

bovine gelatin = experiment: Young's Modulus measurement (Instron) of irradiated bovine gelatin strips; conditions: bovine gelatin 25% wt, ICG 1 mg/mL, TEOA 90 mM; 810 nm 200 mW LED; 3 and 5 minute irradiations compiled
Description: (§1) All Young's Modulus values were determined using an Instron equipped with screw side action tensile grips and a load cell rated for max 100 N. Rates of pulling were between 3 mm/minute and 5 mm/minute. The software calculated the Young's Modulus from the force vs. distance/time.
Bovine gelatin sheets were made by heating the gelatin in Dulbecco's buffer to 75° C. for 30 minutes in order to dissolve the dried gelatin and make a viscous solution. Neat TEOA and a concentrated stock solution of ICG in deionized water were added to make the final concentrations: bovine gelatin=25% wt, TEOA=90 mM, and ICG=1 mg/mL. This solution was pipetted hot into a plexiglass mold with a Teflon spacer to form a sheet of the following dimensions: 14 cm×6 cm×1 mm. It was stored overnight in a 4° C. refrigerator to solidify. Twelve 1 cm×6 cm strips were cut from the solidified gel for triplicate analysis of 4 conditions: no irradiation, 3 minute, 5 minute, and 10 minute irradiations. An 810 nm 200 mW LED (Thor Labs) was used for treatment of the gel strip. The LED with a collimator produced a 1 cm×1 cm irradiation area, which was used to treat 1 cm portions of the gelatin strip at a time. For example, an initial irradiation was applied for 3 minutes on 1 cm of the gel, then the gel was shifted 1 cm to a new, untreated portion. […]

porcine sclera = experiment: Young's Modulus measurement (Instron) of irradiated porcine sclera strips; set-up: species or system porcine (pig); conditions: porcine sclera strips soaked in 2 mg/mL ICG, 0.01% BAC in D2O; 810 nm LED 200 mW, total 10 minutes
Description: as §1
The treatment was also tested on a more biologically relevant sample—unscalded porcine (pig) eyes (Sierra For Medical Science). Eyes were cut around the globe to make a 1 cm×5-6 cm strip of pig sclera for testing. Measurements were accumulated over several batches of eyes. Storage solutions before treatment (irradiation) contained 20% Dextran (MW ˜40-45k) in D2O while post-treatment storage was Dulbecco's buffer with 20% Dextran (MW ˜40-45k). An ICG/BAC/D2O soak solution was made to the concentration of 2 mg/mL ICG and 0.01% BAC. Strips for treatment were soaked in the solution for 0.5-2 hours. Irradiation was carried out similarly to the bovine gelatin strips—810 nm LED, 200 mW, and a 1 cm×1 cm irradiation zone. To ensure sufficient irradiation without sample dehydration, irradiation duration was kept at 5 minutes but performed twice—i.e. the sample was moved down 1 cm every 5 minutes and then the process was repeated—in order to give a total of 10 minutes of irradiation. […] The Young's Modulus values were calculated by the software and compiled to compare untreated vs. treated strips. […]

CC1(C)C(/C=C/C=C/C=C/C=C2\N(CCCCS(=O)(=O)O)c3ccc4ccccc4c3C2(C)C)=[N+](CCCCS(=O)(=O)[O-])c2ccc3ccccc3c21 [ICG, indocyanine green]
SOSG fluorescence emission at 525 nm ([1]; D2O): large increase in fluorescence activation
SOSG fluorescence emission at 525 nm ([1]; H2O): increase
singlet oxygen generation (SOSG turn-on) relative to riboflavin ([1]; only in the presence of D2O): efficient enough to compete with the turn-on observed in the presence of riboflavin
ICG and DPBF signal (UV-Vis) upon irradiation ([2]; 810 nm, 375 mW LED, in water): decrease
singlet oxygen generation (DPBF analysis) ([2]; in H2O or D2O): singlet oxygen generation was observed
increase of the Young's Modulus, irradiated vs non-irradiated sample (bovine gelatin): 26%
increase of the Young's Modulus, irradiated (treated) vs non-irradiated (untreated) sample (porcine sclera): 21%
